According to US10849322B2, “Use of hibiscus acid and derivatives thereof as antimicrobials against antibiotic-resistant and non-antibiotic-resistant microorganisms” (UNIVERSIDAD AUTONOMA DEL ESTADO DE HIDALGO, priority 2015, dated 2020):

Key:
[1] = test system: E coli O157H7; test: Disc diffusion, zones of inhibition in culture medium; assay type: cell-based, Escherichia coli; details: A = E coli O157H7, average of four repetitions
Protocol: (§1) […]. Select mutants resistant to the antibiotic rifampicin (R+) to eliminate the interference of the native microbial flora of Hibiscus acid and derivatives (Castro-Rosas and Escartín, 2000). Maintain the R+ strains at 4-7° C. on blood-based agar (ABS, Merck®, Germany) with biweekly transfers, activating tripticasein soy broth (CST, Bioxon®, Mexico) with incubation at 35° C./24 h.
(§2) Prepare cultures of each one of the R+ study bacteria in tubes of 13×100 mm containing 3 ml of Tripticasein Soy Broth (TSB) incubating at 35° C. for 24 hours. Subsequently, centrifuge the cultures at 3500 rpm for 20 minutes. Then discard the supernatant and resuspend the cell pack by adding 3 ml of sterile isotonic saline solution (ISS) and agitate in vortex for 10 seconds. Repeat the previous procedure two more times. Subsequently, dilute each culture of the washed strains in a decimal proportion with ISS.
(§3) From the dry fractions (collections) prepare aqueous solutions using a solution of Polysorbate 80:water that was previously prepared in a ratio of 20:80. To this solution of polysorbate 80:water, add each dry fraction or chromatographic collection separately in a 1:9 ratio, in clean jars.
(§4) Separately, place 100 μL of the first dilution of the washed and diluted cultures on boxes of Agar Soya Tripticasa (AST) supplemented with 100 mg/L of the antibiotic rifampin; distribute the inoculum over the entire surface of the agar using the surface extension technique. Place on the inoculated boxes, separately, filter paper discs of a size of 0.5 cm and on the disks place aliquots of 10 μL of the solution of the chromatographic fractions. Perform four repetitions for each treatment. After the aliquots of the fractions or collections are absorbed by the agar, incubate the culture boxes at 35° C. for 24 hours.

[2] = test system: E. coli enteroinvasive; test: as above; assay type: cell-based, Escherichia coli; details: B = E. coli enteroinvasive, average of four repetitions
Protocol: as §1, §2, §3, §4

[3] = test system: E. coli enteropathogenic; test: as above; assay type: cell-based, Escherichia coli; details: D = E. coli enteropathogenic, average of four repetitions
Protocol: as §1, §2, §3, §4

[4] = test system: E. coli enterotoxigenic; test: as above; assay type: cell-based, Escherichia coli; details: C = E. coli enterotoxigenic, average of four repetitions
Protocol: as §1, §2, §3, §4

[5] = test system: L. monocytogenes scott A; test: as above; assay type: cell-based, Listeria monocytogenes; details: J = L. monocytogenes scott A, average of four repetitions
Protocol: as §1, §2, §3, §4

[6] = test system: Listeria monocytogenes; test: as above; assay type: cell-based; details: I = Listeria monocytogenes, average of four repetitions
Protocol: as §1, §2, §3, §4

[7] = test system: Pseudomonas aeruginosa; test: as above; assay type: cell-based; details: column L, average of four repetitions
Protocol: as §1, §2, §3, §4

[8] = test system: Salmonella Typhimurium R+; test: as above; assay type: cell-based; details: E = Salmonella Typhimurium R+ (resistant to 14 antibiotics), average of four repetitions
Protocol: as §1, §2, §3, §4

[9] = test system: Salmonella choleraesuis; test: as above; assay type: cell-based; details: column F, average of four repetitions
Protocol: as §1, §2, §3, §4

[10] = test system: Shigella flexneri; test: as above; assay type: cell-based; details: H = Shigella flexneri, average of four repetitions
Protocol: as §1, §2, §3, §4

[11] = test system: Shigella sonnei; test: as above; assay type: cell-based; details: G = Shigella sonnei, average of four repetitions
Protocol: as §1, §2, §3, §4

[12] = test system: Staphylococcus aureus; test: as above; assay type: cell-based; details: K = Staphylococcus aureus, average of four repetitions
Protocol: as §1, §2, §3, §4

[13] = test system: V. cholerae O1; test: as above; assay type: cell-based; details: M = V. cholerae O1, average of four repetitions
Protocol: as §1, §2, §3, §4

[14] = test system: 13 different microorganisms; test: Antimicrobial effect in culture medium, whole panel; assay type: cell-based; details: against the control; all study microorganisms
Protocol: as §1, §2
From the dry fractions (collections) prepare aqueous solutions using a solution of Polysorbate 80:water that was previously prepared in a ratio of 20:80. To this solution of polysorbate 80:water, add each dry fraction or chromatographic collection separately in a 1:9 ratio, in clean jars. […]

SMILES | Zones of inhibition [1] [mm] | Zones of inhibition [2] [mm] | Zones of inhibition [3] [mm] | Zones of inhibition [4] [mm] | Zones of inhibition [5] [mm] | Zones of inhibition [6] [mm] | Zones of inhibition [7] [mm] | Zones of inhibition [8] [mm] | Zones of inhibition [9] [mm] | Zones of inhibition [10] [mm] | Zones of inhibition [11] [mm] | Zones of inhibition [12] [mm] | Zones of inhibition [13] [mm] | antimicrobial effect (zone of inhibition, in words) [14]
O=C1C[C@](O)(C(=O)O)[C@@H](C(=O)O)O1 [Compound 1, hibiscus acid] | 10 | 12 | 11 | 10 | 10 | 10 | 10 | 12 | 10 | 10 | 10 | 10 | 14 | maximum zone of inhibition
CCOC(=O)[C@@]1(O)CC(=O)O[C@@H]1C(=O)O [Compound 4, mono ester ethyl of hibiscus acid] | 6 | 6 | 6 | 6 | 6 | 6 | 6 | 6 | 6 | 6 | 6 | 6 | 8 | 
COC(=O)[C@@]1(O)CC(=O)O[C@@H]1C(=O)O [Compound 2, mono ester methyl of hibiscus acid] | 10 | 10 | 10 | 10 | 8 | 8 | 8 | 10 | 10 | 10 | 10 | 10 | 12 | 
CCOC(=O)C[C@](O)(C(=O)OCC)[C@@H](O)C(=O)OCC [Compound 6, tri-ethyl ester of hydroxycitric acid] | 5 | 5 | 5 | 5 | 5 | 5 | 5 | 5 | 5 | 5 | 5 | 5 | 6 | lowest
CCOC(=O)[C@H]1OC(=O)C[C@]1(O)C(=O)OCC [Compound 5, di-ester ethyl of hibiscus acid] | 6 | 6 | 6 | 6 | 6 | 6 | 6 | 6 | 6 | 6 | 6 | 6 | 8 | 
COC(=O)[C@H]1OC(=O)C[C@]1(O)C(=O)OC [Compound 3, di-ester methyl of hibiscus acid] | 8 | 8 | 8 | 8 | 8 | 8 | 8 | 8 | 8 | 8 | 8 | 8 | 10 | 
